{"source": "patent US7947647B2", "about": "“Synthetic mimics of mammalian cell surface receptors: method and compositions” (The Penn State Research Foundation, priority 2004, dated 2011)", "key": {"[1]": {"target": "rabbit polyclonal anti-DNP IgG", "assay": "Fluorescence polarization binding of DNP and NBD derivatives to anti-DNP IgG", "settings": "apparent affinity, PBS pH 7.4, read-out: dissociation constants (Kd)"}, "Jurkat lymphocytes [2]": {"tested_on": "Jurkat lymphocytes", "assay": "Antibody uptake assay and uptake kinetics (flow cytometry)", "type": "cell-based, human", "settings": "for efficiency as mediator of ligand (IgG) uptake: anti-DNP/PrA-AF488, flow cytometry", "procedure": "Antibody uptake assays (FIG. 8, Panels A-B, FIG. 10, and FIG. 11). Synthetic receptors 2-9 in DMSO were diluted in RPMI media (0.5 mL, final DMSO concentration=1%) containing Jurkat lymphocytes (1×10^6). These receptor-treated cells were incubated at 37° C. for 1 h, washed with RPMI media (2×0.5 mL) to remove unincorporated receptors/DMSO, and resuspended in fresh media (89 μL). To these cells was added a pre-equilibrated complex (preincubated at 23° C. for 1 h) of anti-DNP IgG (9.6 μg) and the PrA-Alexa Fluor conjugate (PrA-AF488 or PrA-AF633, 3 μg) in phosphate-buffered saline (11 μL, pH 7.4, total volume=100 μL). Cells were typically maintained at 37° C. for 4 h to promote synthetic receptor-mediated endocytosis. Prior to analysis, treated cells were washed with media (0.5 mL), washed again with media containing 6-(2,4-dinitrophenyl)aminohexanoic acid (100 μM, 3×0.5 mL×20 min, 1% DMSO) to compete away any non-internalized protein, washed again with media (0.5 mL), and resuspended in media (0.6 mL) for analysis by epifluorescence microscopy, confocal microscopy, or flow cytometry.\nAntibody uptake kinetics (FIG. 8, Panel C). To determine the relative uptake rates shown on the left of FIG. 8C, Jurkat lymphocytes were subjected to the antibody uptake assay (cells were treated with receptors 2-5 at 10 μM for 1 h followed by addition of a pre-equilibrated complex (preincubated at 23° C. for 1 h) of anti-DNP-IgG/PrA-AF488 for 15 min to 4 h) and internalized cellular fluorescence was quantified by flow cytometry. […] Observed rates of ligand uptake (kobs) were calculated with a Michaelis-Menten kinetic model assuming saturating concentrations of substrate (kobs=(Ft−F0)/t). t=time (in minutes), Ft=fluorescence at the specified time, and F0=fluorescence at time=0 min. The slope of plots of fluorescence vs. time provided kobs values that were divided by the basal rate of endocytosis (no receptor) to determine the relative rates of uptake.\nThese cells were washed with ice-cold media (500 μL) and maintained at 4° C. A pre-equilibrated (1 h at 23° C.) ice-cold solution of RPMI media (100 μL) containing anti-DNP-IgG (7.2 μg) and PrA-AF488 (2 μg) was added. After 1 h at 4° C., the cells were washed with ice-cold RPMI media (2×500 μL). Cells were equilibrated at 37° C. for 20 min prior to fluorescence measurements to dissociate excess surface-bound antibody. After equilibration, uptake experiments were initiated (this was defined as t=0 min). Cells were subsequently incubated at 37° C. for fixed periods of time (0 to 3 h), cooled to 4° C. on ice, and washed with ice-cold RPMI media containing 6-(2,4-dinitrophenyl)aminohexanoic acid (100 μM, 1% DMSO, 3×0.5 mL×10 min at 4° C. followed by 2×0.5 mL×20 min at 23° C.) to remove non-internalized IgG. Intracellular fluorescence was quantified by flow cytometry. Cell surface fluorescence was calculated by subtracting this intracellular fluorescence from cellular fluorescence measured at t=0 min (after the initial equilibration at 37° C. for 20 min; the competition with 6-(2,4-dinitrophenyl)aminohexanoic acid was omitted to analyze this cellular fluorescence).\nSynthetic receptors were evaluated as mediators of cellular uptake of protein ligands in living Jurkat lymphocytes, a human T cell line. Confocal laser scanning microscopy and flow cytometry were employed to analyze cells treated with compounds 2-9 for 1 hour followed by addition of anti-DNP IgG complexed with fluorescent conjugates of the IgG-binding protein A (PrA) from S. aureus. […] (FIG. 9, Panel A). This intracellular red fluorescence was 59-fold lower in the absence of receptor 6 consistent with a synthetic receptor-mediated uptake mechanism. The IgG-loaded intracellular compartments were identified as late endosomes and lysosomes by co-localization studies in cells transfected with EGFP-lgp120, a fluorescent protein marker of these compartments."}, "Jurkat lymphocytes [3]": {"tested_on": "Jurkat lymphocytes", "assay": "Cellular stability (cell surface half-life) of receptor", "type": "cell-based, human", "settings": "10 μM receptor 1 h, detected with anti-DNP/PrA-AF488", "procedure": "Quantification of the cellular stability of receptor 2 (FIG. 9, Panel C). Jurkat lymphocytes (1×10^7) were incubated with receptor 2 in media (5 mL, 10 μM receptor, 1% DMSO) for 1 h at 37° C. in a 15 mL aerated centrifuge tube. Cells were washed with media (2×5 mL) to remove unincorporated receptor, resuspended in media (10 mL), transferred 2) to a tissue culture flask (25 cm^2), and maintained at 37° C. At fixed time points, an aliquot of this culture (1 mL) was removed from the flask and cells isolated by centrifugation. These cells were resuspended in media (89 μL) and a pre-equilibrated (23° C. for 1 h) complex of anti-DNP IgG (9.6 μg) and PrA488 (3 μg) in phosphate buffered saline (PBS, 11 μL, pH 7.4) was added for 5 min at 37° C. Treated cells were centrifuged (1300 g for 2 min), the supernatant was removed, cells were resuspended in media (0.5 mL), and cellular fluorescence was analyzed by flow cytometry. […]\nTo evaluate the temporal stability of receptor 2 on the cell surface, the half-life of this compound on Jurkat lymphocytes was quantified by addition of a soluble antibody. Cells were treated with this receptor for 1 hour (10 μM), unincorporated receptor was removed by washing cells with fresh media, and the abundance of 2 as a function of time was detected with a green fluorescent anti-DNP/PrA-AF488 complex."}, "Jurkat lymphocytes [4]": {"tested_on": "Jurkat lymphocytes", "assay": "Efflux kinetics from endosomes to plasma membrane by back exchange", "type": "cell-based, human", "procedure": "FIG. 11. Quantification of efflux kinetics of receptor 10 from endosomes to the plasma membrane of Jurkat lymphocytes by back exchange. Cells treated with 10 (1 μM, 1 hour) were cooled to 4° C. and cell surface fluorophores removed (>90%) by repeated washing with ice-cold back exchange media containing BSA (1%) and methyl-β-cyclodextrin (2 mM). Cells were resuspended in back exchange media at 37° C. to resume recycling, cellular fluorescence was quantified by flow cytometry, and loss of fluorescence was evaluated with a one-site exponential decay model.\nQuantification of efflux kinetics of receptor 10 from endosomes to the plasma membrane by back exchange (FIG. 11). The efficiency of removal of 10 from the plasma membrane was examined prior to analysis of efflux kinetics. Jurkat lymphocytes (3×10^6) were suspended in ice-cold serum free recycling media (1.5 mL) and maintained on ice (2 min) to block plasma membrane recycling. These cells were resuspended in ice-cold serum free recycling media (1.5 mL, 1% DMSO) containing 10 (1 μM) and maintained on ice (10 min) to allow association of 10 with the plasma membrane. Receptor-treated cells were washed with ice-cold serum free recycling media (2×0.5 mL), resuspended in ice-cold serum free recycling media (1.5 mL), and analyzed by flow cytometry.\nThese cells were washed with serum free recycling media (2×1 mL) to remove unincorporated receptor (10). These receptor-treated cells were cooled on ice (5 min) to halt recycling and washed with ice-cold back-exchange media (6×1.5 mL×10 min) to selectively remove 10 from the cell surface without affecting the population of 10 in intracellular endosomes. These cells were resuspended in warm back exchange media (37° C., 1.5 mL) to initiate plasma membrane recycling and immediately analyzed by flow cytometry (defined as t=0 min). Cells were isolated by centrifugation, resuspended in warm back exchange media (1.5 mL, 37° C.), incubated at 37° C., and analyzed by flow cytometry as a function of time.\nTo quantify the rate of plasma membrane recycling, oregon green-derived receptor 10 was employed. Unlike the more strongly cell-associated DNP and NBD-based receptors, the compound 10 binds proteins in cell culture media and can be rapidly and efficiently depleted from cell surfaces by washing cells with “back exchange” media containing bovine serum albumin (BSA, 1%) and methyl-beta-cyclodextrin (Me-beta-CD, 2 mM). This concentration of Me-beta-CD is known to affect neither endocytosis nor plasma membrane recycling. The oregon green-fluorophore of 10 was also chosen for these studies because unlike structurally similar carboxydifluorescein the fluorescence of oregon green is not appreciably quenched in acidic environment of endosomal compartments. […]"}, "[5]": {"tested_on": "mouse J-774 cells and human HeLa cells", "assay": "Flow cytometric analysis of cellular uptake of fluorescent vancomycin 2", "type": "cell-based", "procedure": "FIG. 18. Flow cytometric analysis of cellular uptake of fluorescent vancomycin 2 promoted by synthetic receptor 3 and control compounds. Preload conditions: Receptor 3 or analogues (4, 5) were added to cells for 1 h to load the plasma membrane, cells were washed, and 2 (3 μM) was added for 4 h. Premix conditions: Receptor 3 or analogues (4, 5) were preequilibrated with 2 (3 μM) at 23° C. for 1 h followed by addition of this mixture to cells for 4 h.\nThe dose-dependent effectiveness of delivery of 2 into mouse J-774 cells and human HeLa cells mediated by […] was examined quantitatively by flow cytometry."}, "[6]": {"settings": "read-out: affinity for vancomycin (Kd); cited from earlier work"}, "[7]": {"settings": "10 μM receptor for 1 hour, anti-DNP/PrA-AF488"}}}
{"molecule": "6-(7-nitrobenzofuran-4-ylamino)hexanoic acid [compound 28, reference compound]", "values": [{"measurement": "Kd", "setting": "[1]", "result": "820 ± 144", "unit": "nM"}]}
{"molecule": "O=C(CCCCCNc1ccc([N+](=O)[O-])cc1[N+](=O)[O-])NCCCNC(=S)Nc1ccc(-c2c3ccc(=O)cc-3oc3cc(O)ccc23)c(C(=O)O)c1", "note": "[compound 27]", "values": [{"measurement": "Kd", "setting": "[1]", "result": "23 ± 1.5", "unit": "nM"}]}
{"molecule": "CC(C)CCC[C@@H](C)[C@H]1CC[C@H]2[C@@H]3CC=C4C[C@@H](NCCCNC(=O)CCNC(=O)CCNC(=O)CCCCCNc5ccc([N+](=O)[O-])cc5[N+](=O)[O-])CC[C@]4(C)[C@H]3CC[C@]12C", "note": "[receptor 2, N-(3-{[3-({3-[(3β)-cholest-5-en-3-ylamino]propyl}amino)-3-oxopropyl]amino}-3-oxopropyl)-6-[(2,4-dinitrophenyl)amino]hexanamide]", "values": [{"measurement": "enhancement of cellular uptake of anti-DNP IgG in magnitude compared with basal levels of endocytosis", "setting": "Jurkat lymphocytes [2]; [7]", "result": 208, "unit": "fold"}, {"measurement": "enhancement of cellular uptake of anti-DNP IgG in rate compared with basal levels of endocytosis", "setting": "Jurkat lymphocytes [2]; [7]", "result": 391, "unit": "fold"}, {"measurement": "efficiency as mediator of ligand (IgG) uptake", "setting": "Jurkat lymphocytes [2]", "result": "by far the most efficient"}, {"measurement": "rate of uptake (k)", "setting": "Jurkat lymphocytes [2]; receptor at 1 μM, anti-DNP-IgG/PrA-AF488, 37° C.", "result": "0.007327 ± 0.000006", "unit": "min⁻¹"}, {"measurement": "ligand internalization half-life (t1/2)", "setting": "Jurkat lymphocytes [2]; receptor at 1 μM, calculated as (ln 2)/k", "result": 1.58, "unit": "h"}, {"measurement": "cell surface half-life", "setting": "Jurkat lymphocytes [3]", "result": 20, "unit": "h"}]}
{"molecule": "CC(C)CCC[C@@H](C)[C@H]1CC[C@H]2[C@@H]3CC=C4C[C@@H](NCCCNC(=O)CCNC(=O)CCCCCNc5ccc([N+](=O)[O-])cc5[N+](=O)[O-])CC[C@]4(C)[C@H]3CC[C@]12C", "note": "[receptor 3, N-[3-({3-[(3β)-cholest-5-en-3-ylamino]propyl}amino)-3-oxopropyl]-6-[(2,4-dinitrophenyl)amino]hexanamide]", "values": [{"measurement": "efficiency as mediator of ligand (IgG) uptake", "setting": "Jurkat lymphocytes [2]", "result": "dramatically diminished the effectiveness"}]}
{"molecule": "CC(C)CCC[C@@H](C)[C@H]1CC[C@H]2[C@@H]3CC=C4C[C@@H](NCCCNC(=O)CCCCCNc5ccc([N+](=O)[O-])cc5[N+](=O)[O-])CC[C@]4(C)[C@H]3CC[C@]12C", "note": "[receptor 4, N-{3-[(3β)-cholest-5-en-3-ylamino]propyl}-6-[(2,4-dinitrophenyl)amino]hexanamide]", "values": [{"measurement": "efficiency as mediator of ligand (IgG) uptake", "setting": "Jurkat lymphocytes [2]", "result": "dramatically diminished the effectiveness"}]}
{"molecule": "CC(C)CCC[C@@H](C)[C@H]1CC[C@H]2[C@@H]3CC=C4C[C@@H](NC(=O)CCNC(=O)CCCCCNc5ccc([N+](=O)[O-])cc5[N+](=O)[O-])CC[C@]4(C)[C@H]3CC[C@]12C", "note": "[receptor 5, N-{3-[(3β)-cholest-5-en-3-ylamino]-3-oxopropyl}-6-[(2,4-dinitrophenyl)amino]hexanamide]", "values": [{"measurement": "efficiency as mediator of ligand (IgG) uptake", "setting": "Jurkat lymphocytes [2]", "result": "essentially abolished internalization of IgG"}, {"measurement": "reduction of IgG delivery relative to receptor 4 (secondary amine converted to secondary amide)", "setting": "Jurkat lymphocytes [2]; at 10 μM", "result": "over 50 fold"}]}
{"molecule": "CC(C)CCC[C@@H](C)[C@H]1CC[C@H]2[C@@H]3CC=C4C[C@@H](NCCCNC(=O)CCNC(=O)CCNC(=O)CCCCCNc5ccc([N+](=O)[O-])c6nonc56)CC[C@]4(C)[C@H]3CC[C@]12C", "note": "[receptor 6, N-(3-{[3-({3-[(3β)-cholest-5-en-3-ylamino]propyl}amino)-3-oxopropyl]amino}-3-oxopropyl)-6-(7-nitrobenzofurazan-4-ylamino)hexanamide]", "values": [{"measurement": "intracellular red fluorescence lower in the absence of receptor", "setting": "Jurkat lymphocytes [2]; 10 μM receptor, red fluorescent anti-DNP IgG/PrA", "result": 59, "unit": "fold"}]}
{"molecule": "CC(C)CCCC(C)[C@H]1CCC2C3CC=C4CC(NCCCNC(=O)CCNC(=O)c5ccc(-c6c7cc(F)c(=O)cc-7oc7cc(O)c(F)cc67)c(C(=O)O)c5)CC[C@]4(C)C3CC[C@@]21C", "note": "(stereo partly shown) [receptor 10]", "values": [{"measurement": "recycling half-life", "setting": "Jurkat lymphocytes [4]; 1 μM, back exchange media 37° C., one-phase exponential decay", "result": "2.8 ± 0.8", "unit": "min"}, {"measurement": "removal of receptor from the cell surface", "setting": "Jurkat lymphocytes [4]; additional/repeated wash steps with back-exchange media", "result": "> 90", "unit": "%"}, {"measurement": "loss of total cellular fluorescence", "setting": "Jurkat lymphocytes [4]; four total wash steps with back-exchange media, 1 μM", "result": 84, "unit": "%"}, {"measurement": "loss of total cellular fluorescence", "setting": "Jurkat lymphocytes [4]; single wash with ice-cold back-exchange media, 1 μM", "result": 44, "unit": "%"}]}
{"molecule": "AcNH-D-Phe-D-Ala-CO2H", "values": [{"measurement": "effect of soluble competitor on receptor-mediated ligand uptake", "setting": "[5]", "result": "blocked"}]}
{"molecule": "D-Phe-D-Ala [D-Phe-D-Ala dipeptide]", "values": [{"measurement": "Kd", "setting": "[6]", "result": "~7000", "unit": "nM"}]}
